Results: ChEMBL document CHEMBL4033732, “Identification and synthesis of novel inhibitors of mycobacterium ATP synthase” (Bioorg Med Chem Lett, 2017)
Values after ≈ are worked out from the molar mass of the structure shown.

What was measured:
[1] = Inhibition of ATP synathse in Mycobacterium smegmatis str. MC2 155 inverted membrane vesicles assessed as ATP formation pre-incubated for 30 mins before NADH-ADP-phosphate buffer cocktail addition and measured after 60 mins by kinase glow reagent based assay; parameters: species or system Mycolicibacterium smegmatis MC2 155
[2] = target: CYP3A4 (Homo sapiens, UniProt P08684); assay: Inhibition of CYP3A4 in human liver microsomes at 10 uM; type: ADME
[3] = target: T1, CYP1A2 (Homo sapiens, UniProt P05177); assay: Inhibition of CYP1A2 in human liver microsomes at 10 uM; type: ADME
T1 sequence (P05177 whole entry): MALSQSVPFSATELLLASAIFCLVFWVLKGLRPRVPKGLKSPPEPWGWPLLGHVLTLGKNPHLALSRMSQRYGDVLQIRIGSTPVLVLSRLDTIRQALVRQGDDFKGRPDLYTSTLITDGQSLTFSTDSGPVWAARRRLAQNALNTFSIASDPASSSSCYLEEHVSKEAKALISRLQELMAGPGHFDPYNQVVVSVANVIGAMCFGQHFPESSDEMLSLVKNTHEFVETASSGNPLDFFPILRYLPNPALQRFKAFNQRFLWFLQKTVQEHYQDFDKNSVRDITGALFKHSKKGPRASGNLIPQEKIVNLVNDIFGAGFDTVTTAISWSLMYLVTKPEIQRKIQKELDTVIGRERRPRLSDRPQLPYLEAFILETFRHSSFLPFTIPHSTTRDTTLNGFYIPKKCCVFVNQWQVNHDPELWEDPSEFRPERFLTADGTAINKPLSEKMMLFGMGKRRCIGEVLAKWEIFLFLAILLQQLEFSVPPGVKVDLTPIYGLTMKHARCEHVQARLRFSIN

[4] = Solubility in pH 6.8 buffer; type: physicochemical
[5] = target: CYP2D6 (Homo sapiens, UniProt P10635); assay: Inhibition of CYP2D6 in human liver microsomes at 10 uM; type: ADME
[6] = target: CYP2C9 (Homo sapiens, UniProt P11712); assay: Inhibition of CYP2C9 in human liver microsomes at 10 uM; type: ADME
[7] = Lipophilicity, log D of the compound; type: physicochemical; conditions: octanol/water
[8] = system: HeLa; assay: Cytotoxicity against human HeLa cells incubated for 48 hrs by MTT assay; type: functional
[9] = target: CYP2C19 (Homo sapiens, UniProt P33261); assay: Inhibition of CYP2C19 in human liver microsomes at 10 uM; type: ADME
[10] = system: Mycobacterium tuberculosis; assay: Antimicrobial activity against Mycobacterium tuberculosis H37Rv assessed as reduction in microbial growth incubated for 5 days by CLSI protocol based assay; type: functional; conditions: 120 h

CYP2D6, sequence (P10635 whole entry): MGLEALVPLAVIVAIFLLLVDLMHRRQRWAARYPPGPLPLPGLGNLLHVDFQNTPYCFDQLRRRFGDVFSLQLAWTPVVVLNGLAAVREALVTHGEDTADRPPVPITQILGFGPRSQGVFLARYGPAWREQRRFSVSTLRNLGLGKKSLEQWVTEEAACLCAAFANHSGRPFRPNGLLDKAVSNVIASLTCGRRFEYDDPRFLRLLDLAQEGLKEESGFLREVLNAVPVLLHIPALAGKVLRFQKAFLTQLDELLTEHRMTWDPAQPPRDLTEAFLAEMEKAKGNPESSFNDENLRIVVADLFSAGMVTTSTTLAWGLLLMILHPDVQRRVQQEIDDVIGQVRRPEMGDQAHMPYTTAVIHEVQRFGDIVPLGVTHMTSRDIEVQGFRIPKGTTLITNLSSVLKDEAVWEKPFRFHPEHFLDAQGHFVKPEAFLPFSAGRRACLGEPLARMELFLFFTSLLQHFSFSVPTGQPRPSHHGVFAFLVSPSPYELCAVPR
CYP2C9, sequence (P11712 whole entry): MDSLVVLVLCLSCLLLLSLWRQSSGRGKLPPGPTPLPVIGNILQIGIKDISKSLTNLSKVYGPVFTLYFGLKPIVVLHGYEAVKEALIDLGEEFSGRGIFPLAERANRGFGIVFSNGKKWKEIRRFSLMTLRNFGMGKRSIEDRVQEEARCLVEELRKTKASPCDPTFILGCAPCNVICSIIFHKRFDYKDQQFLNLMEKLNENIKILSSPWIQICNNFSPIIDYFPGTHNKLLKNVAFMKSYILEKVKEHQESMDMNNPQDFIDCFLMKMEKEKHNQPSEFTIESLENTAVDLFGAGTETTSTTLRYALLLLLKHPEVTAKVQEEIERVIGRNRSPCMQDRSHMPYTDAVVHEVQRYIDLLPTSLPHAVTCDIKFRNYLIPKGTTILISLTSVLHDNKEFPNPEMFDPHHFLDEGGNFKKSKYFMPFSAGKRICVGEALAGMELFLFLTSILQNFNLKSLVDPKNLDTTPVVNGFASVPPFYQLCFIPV
CYP2C19, sequence (P33261 whole entry): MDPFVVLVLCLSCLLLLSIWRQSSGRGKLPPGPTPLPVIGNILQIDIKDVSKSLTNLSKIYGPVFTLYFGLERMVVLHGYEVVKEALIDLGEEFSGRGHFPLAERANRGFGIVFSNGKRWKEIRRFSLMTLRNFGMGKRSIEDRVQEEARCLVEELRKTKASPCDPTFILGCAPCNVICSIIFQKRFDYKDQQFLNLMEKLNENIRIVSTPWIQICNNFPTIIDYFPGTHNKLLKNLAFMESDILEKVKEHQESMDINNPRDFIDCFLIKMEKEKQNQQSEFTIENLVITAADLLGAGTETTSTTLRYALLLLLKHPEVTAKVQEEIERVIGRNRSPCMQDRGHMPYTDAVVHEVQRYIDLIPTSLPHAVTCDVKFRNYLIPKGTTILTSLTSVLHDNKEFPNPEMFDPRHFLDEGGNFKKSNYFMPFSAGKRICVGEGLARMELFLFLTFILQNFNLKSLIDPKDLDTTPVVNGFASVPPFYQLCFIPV
CYP3A4, sequence (P08684 whole entry): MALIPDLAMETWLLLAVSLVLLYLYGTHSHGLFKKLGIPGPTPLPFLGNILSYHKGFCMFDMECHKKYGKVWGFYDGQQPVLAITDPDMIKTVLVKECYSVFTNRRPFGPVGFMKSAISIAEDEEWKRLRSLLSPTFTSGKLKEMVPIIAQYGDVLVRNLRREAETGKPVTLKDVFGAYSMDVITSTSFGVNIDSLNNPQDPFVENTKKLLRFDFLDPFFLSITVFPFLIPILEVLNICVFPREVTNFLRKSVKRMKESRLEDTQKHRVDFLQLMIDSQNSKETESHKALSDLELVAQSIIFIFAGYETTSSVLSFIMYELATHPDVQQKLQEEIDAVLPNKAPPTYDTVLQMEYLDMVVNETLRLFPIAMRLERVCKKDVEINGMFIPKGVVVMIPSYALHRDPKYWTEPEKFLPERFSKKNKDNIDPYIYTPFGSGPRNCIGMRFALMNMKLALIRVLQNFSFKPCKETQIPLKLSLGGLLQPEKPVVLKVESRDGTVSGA

| Structure (SMILES) | IC50 [1] [µM] | inhibition at 10 µM [2] [%] | inhibition at 10 µM [3] [%] | solubility [4] [µg/mL] | inhibition at 10 µM [5] [%] | inhibition at 10 µM [6] [%] | logD [7] | GI50 [8] [µg/mL] | inhibition at 10 µM [9] [%] | MIC [10] [µg/mL] |
| --- | --- | --- | --- | --- | --- | --- | --- | --- | --- | --- |
| O=C(c1cc2n(n1)CCCN(Cc1ccc(Cl)c(Cl)c1)C2=O)N1CCCCC1 | 0.29 | 0 | 13 | 109 (≈ 259 µM) | 0 | 13 | 2.1 | > 100 | 0 | 8 |
| O=C(c1cc2n(n1)CCN(Cc1ccc(Cl)c(Cl)c1)C2=O)N1CCNCC1 | > 10 | – | – | – | – | – | – | – | – | > 32 |
| O=C(c1cc2n(n1)CCN(Cc1ccccc1)C2=O)N1CCCCC1 | > 10 | – | – | – | – | – | – | – | – | > 32 |
| O=C(c1cc2n(n1)CCN(Cc1ccc(Cl)cc1)C2=O)N1CCCCC1 | 1.05 | – | – | – | – | – | – | > 100 | – | 8 |
| CN(C)CCOc1ccc(NC(=O)c2cc3n(n2)CCN(Cc2ccc(Cl)c(Cl)c2)C3=O)cc1 | > 10 | – | – | – | – | – | – | – | – | > 32 |
| CC(=O)N1CCN(C(=O)c2cc3n(n2)CCN(Cc2ccc(Cl)c(Cl)c2)C3=O)CC1 | > 10 | – | – | – | – | – | – | – | – | > 32 |
| O=C(c1cc2n(n1)CCN(CC1CCCCC1)C2=O)N1CCCCC1 | > 10 | – | – | – | – | – | – | – | – | > 32 |
| O=C(c1cn2ccn(Cc3ccc(Cl)c(Cl)c3)c(=O)c2n1)N1CCCCC1 | 0.52 | 0 | 3 | 1.2 (≈ 2.96 µM) | 0 | 0 | 3.6 | > 100 | 6 | 4 |
| O=C(c1cc2n(n1)CCN(Cc1ccccc1Cl)C2=O)N1CCCCC1 | > 10 | – | – | – | – | – | – | – | – | > 32 |
| CC(C)(C)c1ccc(Cn2ccn3nc(C(=O)N4CCCCC4)cc3c2=O)cc1 | 0.28 | 0 | 0 | < 1 | 14 | 46 | 3.7 | 32 (≈ 81.4 µM) | 31 | 2 |
| CN(C)C(=O)c1cc2n(n1)CCN(Cc1ccc(Cl)c(Cl)c1)C2=O | > 10 | – | – | – | – | – | – | – | – | > 32 |
| CN1CCn2nc(C(=O)N3CCCCC3)cc2C1=O | > 10 | – | – | – | – | – | – | – | – | > 32 |
| O=C(c1cc2n(c1)CCN(Cc1ccc(Cl)c(Cl)c1)C2=O)N1CCCCC1 | 1.55 | – | – | – | – | – | – | > 100 | – | 8 |
| CC(C)(C)c1ccc(CN2CCn3nc(C(=O)N4CCCCC4)cc3C2=O)cc1 | 0.29 | 0 | 17 | 54 (≈ 137 µM) | 0 | 19 | 4 | > 100 | 0 | 8 |
| CC(C)(C)c1ccc(CN2CC(O)n3nc(C(=O)N4CCCCC4)cc3C2=O)cc1 (stereo not drawn) | 3.3 | 0 | 0 | 40 (≈ 97.4 µM) | 48 | 29 | 3 | > 100 | 4 | 16 |
| CN1CCN(C(=O)c2cc3n(n2)CCN(Cc2ccc(Cl)c(Cl)c2)C3=O)CC1 | > 10 | – | – | – | – | – | – | – | – | > 32 |
| O=C(c1cc2n(n1)CCN(Cc1cccc(Cl)c1)C2=O)N1CCCCC1 | 0.11 | – | – | – | – | – | – | > 100 | – | 8 |
| Cc1cccc(CN2CCn3nc(C(=O)N4CCCCC4)cc3C2=O)c1 | 0.042 | – | – | – | – | – | – | > 100 | – | 16 |
| O=C(c1cc2n(n1)CCN(Cc1ccc(Cl)c(Cl)c1)C2=O)N1CCC(c2ccccc2)CC1 | > 10 | – | – | – | – | – | – | – | – | > 32 |
| CC(C)(C)OC(=O)N1CCN(C(=O)c2cc3n(n2)CCN(Cc2ccc(Cl)c(Cl)c2)C3=O)CC1 | > 10 | – | – | – | – | – | – | – | – | > 32 |
| O=C(c1cc2n(n1)CCN(Cc1cccc(-c3ccccc3)c1)C2=O)N1CCCCC1 | 0.046 | – | – | – | – | – | – | > 100 | – | 8 |
| O=C(c1cc2c(=O)n(Cc3ccc(Cl)c(Cl)c3)ccn2n1)N1CCCCC1 | 0.81 | 0 | 0 | < 1 | 30 | 28 | 3.5 | > 100 | 11 | 4 |
| O=C(c1cc2n(n1)CCN(c1ccc(Cl)c(Cl)c1)C2=O)N1CCCCC1 | > 10 | – | – | – | – | – | – | – | – | > 32 |
| CC(C)(C)c1ccc(Cn2ccn3cc(C(=O)N4CCCCC4)nc3c2=O)cc1 | 4.7 | 0 | 0 | 2.7 (≈ 6.88 µM) | 6 | 2 | 4.1 | > 100 | 0 | > 32 |
| O=C(c1cc2n(n1)CCN(Cc1ccc(Cl)c(Cl)c1)C2=O)N1CCCC1 | > 10 | – | – | – | – | – | – | – | – | > 32 |
| O=C(c1cc2n(n1)CCN(Cc1ccc(Cl)c(Cl)c1)C2=O)N1CCCCC1 | 0.27 | 16 | 13 | 7.2 (≈ 17.7 µM) | 0 | 11 | 3.8 | > 100 | 0 | 16 |
| Cc1ccc(CN2CCn3nc(C(=O)N4CCCCC4)cc3C2=O)cc1 | 0.52 | – | – | – | – | – | – | > 100 | – | 8 |
| O=C(c1cc2n(n1)C(O)CN(Cc1ccc(Cl)c(Cl)c1)C2=O)N1CCCCC1 (stereo not drawn) | 1.05 | 0 | 1 | < 1 | 21 | 24 | 3.1 | > 100 | 31 | 32 |
| COc1nc2ccc(Br)cc2cc1C(c1ccccc1)C(O)(CCN(C)C)c1cccc2ccccc12 (racemic) | 0.02 | – | – | – | – | – | – | – | – | 0.25 |
| CC(c1ccc(Cl)c(Cl)c1)N1CCn2nc(C(=O)N3CCCCC3)cc2C1=O (racemic) | > 10 | – | – | – | – | – | – | – | – | > 32 |
